Reference: US8476264B2, “N-(3-(2-amino-6,6-difluoro-4,4A,5,6,7,7A-hexahydro-cyclopenta[E][1,3]oxazin-4-yl)-phenylamides as BACE1 inhibitors” (Hoffmann-La Roche Inc., priority 2011, dated 2013)

Experiments:
[1] = molecular target: T1, BACE1 (Homo sapiens, UniProt P56817); test: Cellular Aβ-lowering assay (Aβ40 ELISA); assay type: cell-based; conditions: HEK293 cells stably expressing human APP wt (APP695); Aβ40 in supernatant after 18-20 hrs; read-out: BACE1 cell act. Aβ40 IC50
T1 construct: Human HEK293 cells which are stably transfected with a vector expressing a cDNA of the human APP wt gene (APP695); endogenous in cells; host or cells: HEK293 stably transfected with human APP695 wt
Protocol: Cellular Aβ-Lowering Assay:
Human HEK293 cells which are stably transfected with a vector expressing a cDNA of the human APP wt gene (APP695) were used to assess the potency of the compounds in a cellular assay. The cells were seeded in 96-well microtiter plates in cell culture medium (Iscove, plus 10% (v/v) fetal bovine serum, glutamine, penicillin/streptomycin) to about 80% confluence and the compounds were added at a 10× concentration in 1/10 volume of medium without FCS containing 8% DMSO (final concentration of DMSO was kept at 0.8% v/v). After 18-20 hrs incubation at 37° C. and 5% CO2 in a humidified incubator the culture supernatant was harvested for the determination of Aβ40 concentrations. 96 well ELISA plates (e.g., Nunc MaxiSorb) were coated with monoclonal antibody which specifically recognize the C-terminal end of Aβ40 (Brockhaus et al., NeuroReport 9, 1481-1486; 1998). After blocking of non-specific binding sites with e.g. 1% BSA and washing, the culture supernatants were added in suitable dilutions together with a horseradish peroxidase-coupled Aβ detection antibody (e.g., antibody 4G8, Senetek, Maryland Heights, Mo.) and incubated for 5 to 7 hrs. Subsequently the wells of the microtiter plate were washed extensively with Tris-buffered saline containing 0.05% Tween 20 and the assay was developed with tetramethylbenzidine/H2O2 in citric acid buffer. After stopping the reaction with one volume 1 N H2SO4 the reaction was measured in an ELISA reader at 450 nm wavelength. The concentrations of Aβ in the culture supernatants were calculated from a standard curve obtained with known amounts of pure Aβ peptide.

[2] = Detection of glutathione conjugates; assay type: in vitro ADME, human; parameters: key: NF: in vitro no significant adduct formation relative to control; conditions: in vitro, relative to control
Excerpt: Detection of Glutathione Conjugates
The assay conditions for the detection of glutathione conjugates follow the procedure described by C. M. Dieckhaus et al.

[3] = in vivo effect; conditions: % of control @ 30 mg/kg p.o.
[4] = molecular target: T2, recombinant human cathepsin E (Homo sapiens, UniProt P14091); test: Cathepsin E fluorescent substrate kinetic assay; assay type: biochemical; conditions: pH 4.5, substrate MR121-[…]
T2 construct: purchased R&D Systems
T2 sequence (P14091 54-396): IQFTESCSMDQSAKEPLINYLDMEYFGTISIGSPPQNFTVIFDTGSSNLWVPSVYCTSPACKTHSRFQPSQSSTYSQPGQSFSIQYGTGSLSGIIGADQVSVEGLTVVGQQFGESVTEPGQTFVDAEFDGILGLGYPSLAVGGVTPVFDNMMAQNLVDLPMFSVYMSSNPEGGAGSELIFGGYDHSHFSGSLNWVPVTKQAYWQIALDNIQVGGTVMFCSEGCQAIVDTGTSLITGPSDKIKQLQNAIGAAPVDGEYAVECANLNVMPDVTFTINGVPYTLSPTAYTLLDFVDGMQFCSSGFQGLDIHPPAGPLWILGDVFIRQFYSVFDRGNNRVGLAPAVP
Excerpt: (§1) Cathepsin D and Cathepsin E Fluorescent Substrate Kinetic Assays
(§2) The MR121 fluorescence assays described below are based on the fact that MR121 forms a non-fluorescent ground state complex with tryptophan. In solution this formation occurs at millimolar concentrations of tryptophan. The mechanism can be used to design a generic biochemical assay for proteases. A substrate peptide is labeled at the N-terminus with tryptophan and at the C-terminus with the fluorophore MR121 (for cathepsin D the 10 amino acid peptide […]-MR121 was used; for cathepsin E, MR121-[…] was used). In absence of protease activity, the substrates remain intact and the MR121 fluorescence is reduced by the high local Trp-concentration. If the substrates are cleaved by the enzymes the MR121 fluorescence is recovered.
(§3) The fluorescent substrate cathepsin D and cathepsin E kinetic assays were performed at room temperature in 384-well microtiter plates (black with clear flat bottom, non binding surface plates from Corning) in a final volume of 51 μl. The test compounds were serially diluted in DMSO (15 concentrations, ⅓ dilution steps) and 1 μl of diluted compounds were mixed for 10 min with 40 μl of cathepsin D (from human liver, Calbiochem) diluted in assay buffer (100 mM sodium acetate, 0.05% BSA, pH 5.5; final concentration: 200 nM) or with 40 μl of recombinant human cathepsin E (R&D Systems) diluted in assay buffer (100 mM sodium acetate, 0.05% BSA, pH 4.5; final concentration: 0.01 nM). After addition of 10 μl of the cathepsin D substrate […]-MR121 diluted in cathepsin D assay buffer (final concentration: 300 nM) or […] cathepsin E substrate MR121-[…] diluted in cathepsin E assay buffer (final concentration: 300 nM), the plates were strongly shaken for 2 minutes. The enzymatic reaction was followed in a plate: vision reader (Perkin Elmer) (excitation wavelength: 630 nm; emission: 695 nm) for at least 30 minutes in a kinetic measurement detecting an increase of MR121 fluorescence during the reaction time. The slope in the linear range of the kinetic was calculated and the IC50 of the test compounds were determined using a four parameter equation for curve fitting.

[5] = molecular target: T3, cathepsin D (from human liver) (Homo sapiens, UniProt P07339); test: Cathepsin D fluorescent substrate kinetic assay; assay type: biochemical; conditions: pH 5.5, substrate […]-MR121
T3 construct: cathepsin D (from human liver, Calbiochem) diluted in assay buffer; purchased Calbiochem; host or cells: purified from human liver
Excerpt: as §1, §2, §3

[6] = molecular target: T4, CYP3A4 (Homo sapiens, UniProt P08684); test: CYP inhibition assay, CYP3A4; assay type: in vitro ADME; conditions: human liver microsomes, midazolam 1' hydroxylase; read-out: CYP IC50 3A4
T4 construct: 0.2 mg/ml pooled human liver microsomes; from tissue; host or cells: pooled human liver microsomes
Protocol: (§4) Inhibition of cytochromes P450 (CYPs) 2C9, 2D6 and 3A4 was assessed using human liver microsomes and CYP-selective substrate metabolism reactions. 50 μl incubations were made up containing (finally) 0.2 mg/ml pooled human liver microsomes, 5 μM substrate (diclofenac for CYP2C9 [4′ hydroxylase], dextromethorphan for CYP2D6 [O-demethylase] or midazolam for CYP3A4 [1′ hydroxylase]), 0.25 μL DMSO containing test inhibitor and NADPH regenerating system. Test inhibitor concentrations of 50, 16.7, 5.6, 1.9, 0.6 and 0.2 μM were assessed in singlicate. Incubations were pre-warmed to 37° C. for 10 minutes before initiation by addition of NADPH regenerating system. Incubations were quenched after 5 minutes (20 minutes for dextromethorphan) by addition of 50 μl cold acetonitrile containing 20 ng/ml 4-OH-diclofenac-13C6, 20 ng/mL dextrorphan-D3 and 20 ng/mL 1-OH-midazolam-D4. Quenched incubates were stored at −20° C. for at least 1 hour before centrifugation (20,000×g, 20 minutes). Supernatants were removed and diluted 1:1 with water prior to analysis using a RapidFire sample injector system and API4000 mass spectrometer. Peak areas for substrate, metabolite and stable-labelled metabolite standard were determined using MS/MS. The peak area ratios between the metabolite generated by the enzymatic reaction and the internal standard were used in subsequent calculations. The percentage of (DMSO) control activity was calculated for each incubate and IC50 values estimated by non-linear regression. Sulfaphenazole, quinidine or ketoconazole were tested in each CYP2C9, CYP2D6 or CYP3A4 inhibition experiment, respectively, to ensure assay sensitivity and reproducibility. (Validated assays for human cytochrome P450 activities, R. L. Walsky and R. S. Obach, Drug Metabolism and Disposition 32: 647-660, 2004. and S. Fowler and H. Zhang, The AAPS Journal, Vol. 10, No. 2, 410-424, 2008.)

[7] = molecular target: T5, CYP2D6 (Homo sapiens, UniProt P10635); test: CYP inhibition assay, CYP2D6; assay type: in vitro ADME; conditions: human liver microsomes, dextromethorphan O-demethylase; read-out: CYP IC50 2D6
T5 construct: 0.2 mg/ml pooled human liver microsomes; from tissue; host or cells: pooled human liver microsomes
Protocol: as §4

[8] = molecular target: T6, CYP2C9 (Homo sapiens, UniProt P11712); test: CYP inhibition assay, CYP2C9; assay type: in vitro ADME; conditions: human liver microsomes, diclofenac 4' hydroxylase; read-out: CYP IC50 2C9
T6 construct: 0.2 mg/ml pooled human liver microsomes; from tissue; host or cells: pooled human liver microsomes
Protocol: as §4

[9] = molecular target: T7, hERG channel (Homo sapiens, UniProt Q12809); test: PatchXpress hERG inhibition assay; assay type: cell-based; conditions: @ 1 μM; CHO cells transfected with hERG, automated patch clamp
T7 construct: expressed in transfected cells; host or cells: CHO cells
Protocol: PatchXpress hERG Inhibition Assay
The detailed method to quantify hERG channel inhibition by the automated patch clamp system PatchXpress® 7000A (Molecular Devices, Sunnyvale, Calif.) has been described by Guo et al. (J of Pharmacol & Tox Methods, (2005) 52(1):123-35). In brief, Chinese hamster ovary (CHO) cells transfected with the human ether-a-go-go-related gene (hERG) was cultured in Ex-cell 302 media supplemented with 10% fetal bovine serum, 2 mM glutamine and 0.25 mg/ml geneticin and maintained in a CO2 incubator at 37° C. For patch clamp electrophysiology, the external buffer contained (in mM): 150 NaCl, 10 Hepes, 4 KCl, 1.2 CaCl2, 1 MgCl2, pH 7.4 adjusted with […] and the internal recording solution contained (in mM): 140 KCl, 6 EGTA, 5 Hepes, MgCl2, 5 ATP-Na2, pH 7.2 adjusted with KOH. Once the cell was loaded in the recording chamber and formed a giga ohm seal with the planar glass electrodes (Sealchip™), a whole-cell configuration was achieved by rupturing the cell membrane. The membrane potential was then clamped at −80 mV and the hERG channel activated by a 1-second depolarizing pulse delivered at 0.1 Hz, the hERG current was measured during the 500 ms-repolarizing pulse to −40 mV. After an acceptable hERG current recording was obtained, the cell was first exposed to 0.3% DMSO as the vehicle control, followed by the test article in three ascending, full-log interval concentrations and finally E-4031 at 1 μM (as the positive control) to block the hERG current completely. […] The inhibition of hERG current at each concentration was normalized to that recorded in the vehicle control, and fitted with Hill equation to calculate IC20 and/or IC50.

T4 sequence (P08684 whole entry): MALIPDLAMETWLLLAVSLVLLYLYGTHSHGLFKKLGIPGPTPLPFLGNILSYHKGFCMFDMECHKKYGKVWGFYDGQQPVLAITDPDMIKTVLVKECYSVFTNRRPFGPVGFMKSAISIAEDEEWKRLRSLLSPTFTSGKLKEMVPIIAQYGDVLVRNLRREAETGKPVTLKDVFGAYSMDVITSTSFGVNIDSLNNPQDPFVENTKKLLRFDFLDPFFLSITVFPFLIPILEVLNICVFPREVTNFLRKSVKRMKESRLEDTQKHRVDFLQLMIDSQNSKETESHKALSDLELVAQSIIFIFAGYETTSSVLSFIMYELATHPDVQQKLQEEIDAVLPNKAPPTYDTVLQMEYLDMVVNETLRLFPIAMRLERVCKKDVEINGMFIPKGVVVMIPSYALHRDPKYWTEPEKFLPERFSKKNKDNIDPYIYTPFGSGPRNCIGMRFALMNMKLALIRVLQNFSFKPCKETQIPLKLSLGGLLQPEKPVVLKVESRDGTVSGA
T5 sequence (P10635 whole entry): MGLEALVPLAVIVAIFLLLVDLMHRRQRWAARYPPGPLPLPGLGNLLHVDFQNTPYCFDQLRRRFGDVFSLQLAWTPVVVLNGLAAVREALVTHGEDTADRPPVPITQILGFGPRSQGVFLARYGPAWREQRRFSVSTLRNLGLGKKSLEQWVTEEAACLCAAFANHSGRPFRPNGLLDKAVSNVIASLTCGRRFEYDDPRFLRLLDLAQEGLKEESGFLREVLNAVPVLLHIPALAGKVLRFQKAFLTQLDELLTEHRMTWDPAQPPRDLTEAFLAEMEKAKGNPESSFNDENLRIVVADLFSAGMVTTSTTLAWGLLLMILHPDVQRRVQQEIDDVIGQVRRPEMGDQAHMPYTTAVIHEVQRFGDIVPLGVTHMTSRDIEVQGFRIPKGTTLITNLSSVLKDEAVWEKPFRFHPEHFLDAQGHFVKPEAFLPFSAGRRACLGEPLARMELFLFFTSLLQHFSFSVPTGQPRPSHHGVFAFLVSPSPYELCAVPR
T6 sequence (P11712 whole entry): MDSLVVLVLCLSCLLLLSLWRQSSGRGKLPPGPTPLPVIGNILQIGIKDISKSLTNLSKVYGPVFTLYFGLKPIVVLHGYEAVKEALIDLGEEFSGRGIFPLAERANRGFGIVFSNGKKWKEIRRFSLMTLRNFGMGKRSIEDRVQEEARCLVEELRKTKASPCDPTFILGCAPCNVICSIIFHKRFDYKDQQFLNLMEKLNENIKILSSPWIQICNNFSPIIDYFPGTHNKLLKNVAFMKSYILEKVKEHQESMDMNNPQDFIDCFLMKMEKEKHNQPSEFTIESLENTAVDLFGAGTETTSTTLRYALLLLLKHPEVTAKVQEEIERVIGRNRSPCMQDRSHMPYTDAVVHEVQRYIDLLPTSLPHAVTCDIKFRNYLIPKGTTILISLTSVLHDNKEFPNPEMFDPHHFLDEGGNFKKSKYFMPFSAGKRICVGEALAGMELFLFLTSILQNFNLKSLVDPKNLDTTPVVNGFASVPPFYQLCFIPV
T3 sequence (P07339 65-162 limits assumed): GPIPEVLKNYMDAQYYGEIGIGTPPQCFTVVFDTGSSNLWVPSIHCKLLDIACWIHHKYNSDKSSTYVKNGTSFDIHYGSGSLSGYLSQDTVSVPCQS
T3 sequence (P07339 169-412 limits assumed): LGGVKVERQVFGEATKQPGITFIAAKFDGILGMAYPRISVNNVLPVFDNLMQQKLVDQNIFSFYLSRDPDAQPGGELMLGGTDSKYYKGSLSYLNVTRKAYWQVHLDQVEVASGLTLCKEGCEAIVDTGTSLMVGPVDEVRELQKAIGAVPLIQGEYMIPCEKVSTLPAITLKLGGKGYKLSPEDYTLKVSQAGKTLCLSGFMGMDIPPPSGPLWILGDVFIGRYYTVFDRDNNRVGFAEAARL
T1 sequence (P56817 46-501): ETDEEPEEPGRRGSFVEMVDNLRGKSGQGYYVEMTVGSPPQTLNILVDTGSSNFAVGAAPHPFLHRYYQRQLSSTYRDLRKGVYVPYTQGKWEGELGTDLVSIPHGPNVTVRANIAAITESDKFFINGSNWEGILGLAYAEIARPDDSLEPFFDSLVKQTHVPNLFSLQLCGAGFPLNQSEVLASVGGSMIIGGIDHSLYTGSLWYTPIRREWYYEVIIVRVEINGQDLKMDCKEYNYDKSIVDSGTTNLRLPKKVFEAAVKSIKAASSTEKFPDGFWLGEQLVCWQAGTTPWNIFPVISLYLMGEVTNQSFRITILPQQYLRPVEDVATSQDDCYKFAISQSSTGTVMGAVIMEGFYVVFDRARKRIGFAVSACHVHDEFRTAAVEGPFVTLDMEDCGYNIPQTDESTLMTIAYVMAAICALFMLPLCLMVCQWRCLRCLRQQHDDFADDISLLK
T7 sequence (Q12809 whole entry): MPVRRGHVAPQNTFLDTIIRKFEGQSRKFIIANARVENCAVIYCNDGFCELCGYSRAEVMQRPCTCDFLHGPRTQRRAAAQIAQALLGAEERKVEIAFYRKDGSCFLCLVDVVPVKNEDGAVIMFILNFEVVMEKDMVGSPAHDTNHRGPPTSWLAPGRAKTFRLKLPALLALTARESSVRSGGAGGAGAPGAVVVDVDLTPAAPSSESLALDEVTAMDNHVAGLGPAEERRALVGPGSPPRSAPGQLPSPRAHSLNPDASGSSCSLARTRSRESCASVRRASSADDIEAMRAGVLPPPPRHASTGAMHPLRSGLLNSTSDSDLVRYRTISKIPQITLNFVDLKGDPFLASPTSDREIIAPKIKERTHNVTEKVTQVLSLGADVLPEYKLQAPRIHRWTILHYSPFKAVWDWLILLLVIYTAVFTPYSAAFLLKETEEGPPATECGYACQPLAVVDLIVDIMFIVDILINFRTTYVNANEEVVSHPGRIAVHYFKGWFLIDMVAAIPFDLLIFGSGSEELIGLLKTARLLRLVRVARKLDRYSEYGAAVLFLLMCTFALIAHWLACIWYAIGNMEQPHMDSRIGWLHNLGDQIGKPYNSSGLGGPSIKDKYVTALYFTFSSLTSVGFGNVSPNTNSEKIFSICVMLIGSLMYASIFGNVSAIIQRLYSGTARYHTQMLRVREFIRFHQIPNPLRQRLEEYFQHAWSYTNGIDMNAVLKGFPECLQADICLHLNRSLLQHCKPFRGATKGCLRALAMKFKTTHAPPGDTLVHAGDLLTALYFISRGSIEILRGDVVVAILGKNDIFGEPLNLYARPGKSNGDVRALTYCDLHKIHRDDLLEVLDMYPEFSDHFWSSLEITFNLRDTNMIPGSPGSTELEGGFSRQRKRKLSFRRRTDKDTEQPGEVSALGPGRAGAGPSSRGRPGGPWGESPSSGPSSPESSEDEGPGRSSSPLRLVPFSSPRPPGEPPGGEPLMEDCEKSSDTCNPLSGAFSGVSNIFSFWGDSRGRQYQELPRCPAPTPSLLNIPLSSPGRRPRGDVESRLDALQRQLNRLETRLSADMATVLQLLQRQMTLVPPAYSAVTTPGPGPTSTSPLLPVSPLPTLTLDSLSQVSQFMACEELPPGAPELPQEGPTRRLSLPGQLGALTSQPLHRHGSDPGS

SMILES	IC50 [1] [µM]	GSH human (glutathione adduct formation) [2]	in vivo effect [3]	IC50 [4] [µM]	IC50 [5] [µM]	IC50 [6] [µM]	IC50 [7] [µM]	IC50 [8] [µM]	hERG inhibition [9]
C[C@]1(c2cc(NC(=O)c3ccc(Cl)cn3)ccc2F)N=C(N)O[C@@H]2CC(F)(F)C[C@@H]21 [Example 1, 5-Chloro-pyridine-2-carboxylic acid [3-((4S,4aR,7aR)-2-amino-6,6-difluoro-4-methyl-4,4a,5,6,7,7a-hexahydro-cyclopenta[e][1,3]oxazin-4-yl)-4-fluoro-phenyl]-amide]	0.0004	NF	A (less than 50% of control @ 30 mg/kg p.o.)	133	52	> 10	1 to 10	> 10	–
C[C@]1(c2cc(NC(=O)c3ccc(C#N)cn3)ccc2F)N=C(N)O[C@@H]2CC(F)(F)C[C@@H]21 [Example 2, 5-Cyano-pyridine-2-carboxylic acid [3-((4S,4aR,7aR)-2-amino-6,6-difluoro-4-methyl 4,4a,5,6,7,7a-hexahydro-cyclopenta[e][1,3]oxazin-4-yl)-4-fluoro-phenyl]-amide]	–	NF	A (less than 50% of control @ 30 mg/kg p.o.)	101	120	> 10	> 10	> 10	A (less than 20% inhibition @ 1 μM)
